Results on ten molecules are retold here after ChEMBL document CHEMBL3044827, “Synthesis and in vitro anti-Helicobacter pylori activity of 2-[(chlorobenzyl)thio]-5-(5-nitro-2-furyl)-1,3,4-thiadiazoles” (2008).

Format in all cases: functional
Holding throughout (conditions): read-out: DIZ

The subject of experiment [1] is Helicobacter pylori. The experiment can be described thus: Antibacterial activity against metronidazole-resistant Helicobacter pylori at 16 ug/disk after 3 to 5 days by paper disk diffusion method.
In experiment [2] the test system is Helicobacter pylori. The experiment in a line: Antibacterial activity against metronidazole-resistant Helicobacter pylori at 32 ug/disk after 3 to 5 days by paper disk diffusion method.
For experiment [3], the system named is Helicobacter pylori. The experiment in a line: Antibacterial activity against metronidazole-sensitive Helicobacter pylori at 8 ug/disk after 3 to 5 days by paper disk diffusion method.
The subject of experiment [4] is Helicobacter pylori. The experiment can be described thus: Antibacterial activity against metronidazole-sensitive Helicobacter pylori at 32 ug/disk after 3 to 5 days by paper disk diffusion method.
The subject of experiment [5] is Helicobacter pylori. The experiment in a line: Antibacterial activity against metronidazole-resistant Helicobacter pylori at 8 ug/disk after 3 to 5 days by paper disk diffusion method.
The subject of experiment [6] is Helicobacter pylori. The experiment in a line: Antibacterial activity against metronidazole-sensitive Helicobacter pylori at 16 ug/disk after 3 to 5 days by paper disk diffusion method.
In experiment [7] the test system is Helicobacter pylori. The experiment in a line: Antibacterial activity against Helicobacter pylori at 32 ug/disk after 3 to 5 days by paper disk diffusion method.
Experiment [8] concerns Helicobacter pylori. The experiment in a line: Antibacterial activity against Helicobacter pylori at 16 ug/disk after 3 to 5 days by paper disk diffusion method.
Experiment [9] has as its system Helicobacter pylori. The experiment can be described thus: Antibacterial activity against Helicobacter pylori at 0.5 ug/disk after 3 to 5 days by paper disk diffusion method.
The test system of experiment [10] is Helicobacter pylori. The experiment can be described thus: Antibacterial activity against Helicobacter pylori at 8 ug/disk after 3 to 5 days by paper disk diffusion method.
Experiment [11] has as its system Helicobacter pylori. The experiment can be described thus: Antibacterial activity against Helicobacter pylori at 4 ug/disk after 3 to 5 days by paper disk diffusion method.
Experiment [12] concerns Helicobacter pylori. The experiment in a line: Antibacterial activity against Helicobacter pylori at 1 ug/disk after 3 to 5 days by paper disk diffusion method.
In experiment [13] the test system is Helicobacter pylori. The experiment in a line: Antibacterial activity against Helicobacter pylori at 2 ug/disk after 3 to 5 days by paper disk diffusion method.

On to `O=[N+]([O-])c1ccc(-c2nnc(SCc3ccc(Cl)cc3)s2)o1`, for which the zone of inhibition at 16 µg/disc in the experiment with Helicobacter pylori [1] turned out to be 17 mm; in the experiment with Helicobacter pylori [6], 16 mm. Also, the zone of inhibition at 32 µg/disc with Helicobacter pylori [2] came out at 17 mm; with Helicobacter pylori [4], 19 mm. In addition, the zone of inhibition at 8 µg/disc was 6 mm in the experiment with Helicobacter pylori [3] and 16 mm in the experiment on Helicobacter pylori [5].
Take `O=[N+]([O-])c1ccc(-c2nnc(SCc3ccccc3Cl)s2)o1`: the zone of inhibition at 16 µg/disc in the experiment on Helicobacter pylori [1] is 20 mm; in the experiment on Helicobacter pylori [8], 18.9 mm; with Helicobacter pylori [6] it was 21 mm. The results for the zone of inhibition at 32 µg/disc in the experiment on Helicobacter pylori [2], with Helicobacter pylori [4] and in the experiment on Helicobacter pylori [7] were 22 mm, 21 mm and 21.4 mm, respectively. The zone of inhibition at 8 µg/disc with Helicobacter pylori [3] turned out to be 19 mm; in the experiment on Helicobacter pylori [5], 18 mm; with Helicobacter pylori [10], 17.1 mm. For the same molecule, the zone of inhibition at 0.5 µg/disc with Helicobacter pylori [9] came out at 6.8 mm. Besides, the zone of inhibition at 4 µg/disc in the experiment on Helicobacter pylori [11] is 11.3 mm. In addition, the zone of inhibition at 1 µg/disc with Helicobacter pylori [12] was found to be 8.3 mm. Moreover, in the experiment on Helicobacter pylori [13], the zone of inhibition at 2 µg/disc came to 9.4 mm.
As to `CC1(C)S[C@@H]2[C@H](NC(=O)[C@H](N)c3ccc(O)cc3)C(=O)N2[C@H]1C(=O)O` [AMOXICILLIN], in the experiment on Helicobacter pylori [12], the zone of inhibition at 1 µg/disc was 24.5 mm.
In the case of `O=[N+]([O-])c1ccc(-c2nnc(SCc3ccc(Cl)cc3Cl)s2)o1`, the zone of inhibition at 16 µg/disc worked out at 6 mm with Helicobacter pylori [1] and 15 mm with Helicobacter pylori [6]. The figures for the zone of inhibition at 32 µg/disc with Helicobacter pylori [2] and in the experiment with Helicobacter pylori [4] were 6 mm and 15 mm, respectively. For the same molecule, the zone of inhibition at 8 µg/disc came to 13 mm in the experiment with Helicobacter pylori [3] and 6 mm in the experiment with Helicobacter pylori [5].
As to `O=[N+]([O-])c1ccc(-c2nnc(SCc3cccc(Cl)c3Cl)s2)o1`, the zone of inhibition at 16 µg/disc with Helicobacter pylori [1] stood at 6 mm; in the experiment on Helicobacter pylori [6], 16 mm. Moreover, the zone of inhibition at 32 µg/disc with Helicobacter pylori [2] turned out to be 17 mm; in the experiment with Helicobacter pylori [4] it was 16 mm. The zone of inhibition at 8 µg/disc amounted to 15 mm with Helicobacter pylori [3] and 6 mm with Helicobacter pylori [5].
For the molecule `O=[N+]([O-])c1ccc(-c2nnc(SCc3cccc(Cl)c3)s2)o1`, the zone of inhibition at 16 µg/disc worked out at 22 mm with Helicobacter pylori [1], 24.1 mm in the experiment with Helicobacter pylori [8] and 25 mm in the experiment with Helicobacter pylori [6]. Also, the zone of inhibition at 32 µg/disc in the experiment with Helicobacter pylori [2] was determined as 25 mm; with Helicobacter pylori [4], 28 mm; with Helicobacter pylori [7], 25.8 mm. Further, the zone of inhibition at 8 µg/disc worked out at 21 mm in the experiment on Helicobacter pylori [3], 20 mm with Helicobacter pylori [5] and 20.6 mm in the experiment with Helicobacter pylori [10]. Besides, the zone of inhibition at 0.5 µg/disc with Helicobacter pylori [9] came to 10.3 mm. Besides, the zone of inhibition at 4 µg/disc in the experiment on Helicobacter pylori [11] was 18.4 mm. The zone of inhibition at 1 µg/disc in the experiment on Helicobacter pylori [12] is 13.1 mm. For the same molecule, in the experiment with Helicobacter pylori [13], the zone of inhibition at 2 µg/disc came out at 15.8 mm.
Take `Cc1ncc([N+](=O)[O-])n1CCO` [METRONIDAZOLE]: the zone of inhibition at 8 µg/disc in the experiment on Helicobacter pylori [10] stood at 16.3 mm.
For the molecule `O=[N+]([O-])c1ccc(-c2nnc(SCc3ccccc3)s2)o1`, the zone of inhibition at 16 µg/disc in the experiment with Helicobacter pylori [1] was determined as 22 mm; in the experiment on Helicobacter pylori [8], 21 mm; with Helicobacter pylori [6], 22 mm. In addition, the zone of inhibition at 32 µg/disc with Helicobacter pylori [2] stood at 25 mm; with Helicobacter pylori [4], 25 mm; in the experiment on Helicobacter pylori [7] it was 24.1 mm. Moreover, the zone of inhibition at 8 µg/disc in the experiment with Helicobacter pylori [3] was 18 mm; in the experiment with Helicobacter pylori [5] it was 19 mm; in the experiment with Helicobacter pylori [10] it was 17.4 mm. The zone of inhibition at 0.5 µg/disc in the experiment with Helicobacter pylori [9] was 6.7 mm. For the same molecule, the zone of inhibition at 4 µg/disc in the experiment on Helicobacter pylori [11] stood at 14.7 mm. Further, in the experiment on Helicobacter pylori [12], the zone of inhibition at 1 µg/disc was found to be 9.6 mm. The zone of inhibition at 2 µg/disc in the experiment with Helicobacter pylori [13] was found to be 12.1 mm.
In the case of `O=[N+]([O-])c1ccc(-c2nnc(SCc3ccc(Cl)c(Cl)c3)s2)o1`, the values for the zone of inhibition at 16 µg/disc in the experiment with Helicobacter pylori [1] and in the experiment on Helicobacter pylori [6] were 6 mm and 13 mm, respectively. The zone of inhibition at 32 µg/disc was 12 mm in the experiment on Helicobacter pylori [2] and 15 mm in the experiment with Helicobacter pylori [4]. The zone of inhibition at 8 µg/disc with Helicobacter pylori [3] worked out at 11 mm; in the experiment with Helicobacter pylori [5], 6 mm.
As to `O=[N+]([O-])c1ccc(-c2nnc(SCc3c(Cl)cccc3Cl)s2)o1`, the zone of inhibition at 16 µg/disc in the experiment with Helicobacter pylori [1] turned out to be 21 mm; in the experiment on Helicobacter pylori [8] it was 21.9 mm; with Helicobacter pylori [6] it was 23 mm. For the same molecule, the zone of inhibition at 32 µg/disc in the experiment with Helicobacter pylori [2] was 24 mm; in the experiment with Helicobacter pylori [4], 26 mm; in the experiment with Helicobacter pylori [7] it was 23.7 mm. In addition, the zone of inhibition at 8 µg/disc came out at 21 mm with Helicobacter pylori [3], 20 mm in the experiment with Helicobacter pylori [5] and 19.4 mm with Helicobacter pylori [10]. Also, the zone of inhibition at 0.5 µg/disc in the experiment on Helicobacter pylori [9] was 8.7 mm. Besides, the zone of inhibition at 4 µg/disc in the experiment on Helicobacter pylori [11] was 15.2 mm. In addition, the zone of inhibition at 1 µg/disc with Helicobacter pylori [12] is 10.9 mm. Besides, the zone of inhibition at 2 µg/disc in the experiment with Helicobacter pylori [13] is 13.1 mm.
